According to publication PMC7411605, “Xanthine Oxidase Inhibition and Anti-LDL Oxidation by Prenylated Isoflavones from Flemingia philippinensis Root” (Molecules, 2020):
“And” between values parts separate entries of the source, which are not always exact repeats. Equal values may be shown once. Read-outs that look alike come from different tables or passages of the source.

How the values were obtained:
[1] = target: T1, Bovine milk xanthine oxidase (XO, EC 1.17.3.2) (Bos taurus, UniProt P80457); assay: Xanthine oxidase activity (uric acid formation at 295 nm); assay type: biochemical; settings: sample concentration which leads to 50% xanthine oxidase activity loss; xanthine substrate, pH 7.5, 37 °C; read-out: IC50, xanthine oxidase inhibition (converted)
T1 construct: Xanthine oxidase from bovine milk (EC 1.17.3.2); purchased Sigma Aldrich Co., (St. Louis, MO, USA); host or cells: bovine milk
T1 sequence (P80457 whole entry): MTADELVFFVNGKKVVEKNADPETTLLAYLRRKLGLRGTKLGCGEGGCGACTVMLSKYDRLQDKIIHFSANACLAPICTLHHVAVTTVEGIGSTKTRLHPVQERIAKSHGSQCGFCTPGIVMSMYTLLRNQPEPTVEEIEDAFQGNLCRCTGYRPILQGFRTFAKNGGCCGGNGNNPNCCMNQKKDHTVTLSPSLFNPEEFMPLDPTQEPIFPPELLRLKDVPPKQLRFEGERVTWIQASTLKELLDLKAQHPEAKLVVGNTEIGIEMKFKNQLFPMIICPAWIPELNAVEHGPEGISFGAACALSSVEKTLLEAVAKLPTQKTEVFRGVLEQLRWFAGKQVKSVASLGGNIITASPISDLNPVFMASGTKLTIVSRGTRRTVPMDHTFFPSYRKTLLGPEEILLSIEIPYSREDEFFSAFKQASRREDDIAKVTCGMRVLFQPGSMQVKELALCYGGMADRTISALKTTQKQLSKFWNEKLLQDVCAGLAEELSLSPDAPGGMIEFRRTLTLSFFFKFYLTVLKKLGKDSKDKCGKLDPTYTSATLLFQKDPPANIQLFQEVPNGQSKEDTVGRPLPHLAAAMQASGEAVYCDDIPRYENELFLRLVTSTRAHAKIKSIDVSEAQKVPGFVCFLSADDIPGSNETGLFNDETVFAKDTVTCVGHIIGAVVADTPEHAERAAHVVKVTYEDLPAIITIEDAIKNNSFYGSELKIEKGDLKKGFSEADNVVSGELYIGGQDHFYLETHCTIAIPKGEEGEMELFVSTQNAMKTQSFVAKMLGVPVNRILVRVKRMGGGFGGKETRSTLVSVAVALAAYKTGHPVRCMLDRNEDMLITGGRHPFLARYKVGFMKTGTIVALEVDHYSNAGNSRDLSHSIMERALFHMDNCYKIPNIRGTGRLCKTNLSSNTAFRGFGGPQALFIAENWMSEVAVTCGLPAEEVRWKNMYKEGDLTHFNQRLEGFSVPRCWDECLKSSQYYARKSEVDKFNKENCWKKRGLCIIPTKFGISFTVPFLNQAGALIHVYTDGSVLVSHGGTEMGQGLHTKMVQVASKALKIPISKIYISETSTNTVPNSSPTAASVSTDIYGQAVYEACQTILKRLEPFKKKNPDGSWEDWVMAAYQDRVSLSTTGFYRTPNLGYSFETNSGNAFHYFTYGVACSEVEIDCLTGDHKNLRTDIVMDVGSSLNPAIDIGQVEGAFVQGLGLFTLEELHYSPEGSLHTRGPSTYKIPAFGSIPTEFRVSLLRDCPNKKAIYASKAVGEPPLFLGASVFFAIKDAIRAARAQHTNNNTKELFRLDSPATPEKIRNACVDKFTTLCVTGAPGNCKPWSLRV
Description: The half-maximal inhibitory concentrations (IC50) were calculated according to the enzyme inhibition rate (%) derived from the change of uric acid formation in comparison with the concentration of inhibitors. The inhibition rate derived from the non-linear regression fitting to Equation (1). Inhibition rate (%) = 100 × [(rate of control reaction − rate of inhibitor reaction)/rate of control reaction](1)

[2] = target: T1, Bovine milk xanthine oxidase (XO, EC 1.17.3.2); assay: Xanthine oxidase inhibition kinetics (Lineweaver–Burk and Dixon plots); assay type: biochemical; settings: for Inhibition Mode: Lineweaver–Burk plots, xanthine 15, 30, 60 μM; for KIS: binding of inhibitor to enzyme-substrate complex, secondary plot of intercept
Description: The inhibition mode and inhibitory constants were determined by Lineweaver–Burk and Dixon plots. For obtaining double reciprocal plots, was measured the reaction absorbance of the enzyme, inhibited by different concentrations of inhibitors, with three concentrations of xanthine (15, 30, and 60 μM) at 295 nm and 37 °C. The corresponding kinetic parameters, namely the Michaelis-Menten constant (Km), maximal velocity (Vmax), inhibitory constant (Ki), and dissociation constant of a binding site for the inhibitor to either free enzyme or the enzyme-substrate complex (KI and KIS) were determined by Equations (2)–(4).

xanthine oxidase = target: T2, xanthine oxidase (Bos taurus, UniProt P80457); assay: Fluorescence quenching of xanthine oxidase (binding affinity); design: species or system bovine; settings: for Stern–Volmer constant KSV / Kd: excitation 290 nm, emission 300-400 nm; for Kd: read-out: binding constant KA (converted); for number of binding sites n: fluorescence quenching
T2 construct: Xanthine oxidase from bovine milk (EC 1.17.3.2); purchased Sigma Aldrich Co., (St. Louis, MO, USA); host or cells: bovine milk
T2 sequence (P80457 whole entry): as above
Description: The binding affinity between xanthine oxidase and isolated isoflavones were measured by fluorescence quenching method. For the fluorescence quenching experiments, the Trp intensities of xanthine oxidase were monitored wavelength of emission from 300 to 400 nm and excitation of 290 nm. The reaction mixture containing 180 μL of 200 mM sodium pyrophosphate/HCl (pH 7.5), 10 μL of isolated isoflavones diluted in DMSO (3.125, 6.25, 12.5, 25.0, and 50.0 μM), and 10 μL of 1 unit/mL xanthine oxidase was placed in black/flat bottom 96-well microplates. […] The quenching parameters such as the Stern–Volmer constant (KSV), binding constant (KA), and the number of binding sites (n) were determined by the Equations (5) and (6). F0 − F = 1 + KSV [Q](5) Log [(F0 − F)/F] = log KA + n log [Q]f(6)

human LDL [3] = assay: TBARS assay of Cu2+ induced LDL oxidation; assay type: biochemical; settings: for IC50: LDL 500 μg/mL, 10 μM Cu2+, 37 °C, 4 h; for Inhibition Rate: at 10 μM of compound, oxidized LDL induced by Cu2+
Description: Thiobarbituric acid reactive substances (TBARS) assay was carried out according to the previous method with minor modifications. The absorbance of a product of a reaction between thiobarbituric acid (TBA) and malondialdehyde (MDA) was measured at 540 nm. First, 220 μL of 500 μg/mL LDL in a buffer (10 mM PBS, pH 7.4), 10 μL of […], and 10 μL of different concentrations from 0 to 3 mM of isoflavones or probucol as a positive control were mixed in 1.5 mL Eppendorf tube and incubated at 37 °C for 4 h. After incubation, 100 μL of trichloroacetic acid (TCA) and 100 μL of 0.67% thiobarbituric acid (TBA)/0.05 N NaOH were added to the reaction mixture and heated in the water bath at 100 °C for 15 min. After heating, the mixture was cooled on the ice and centrifuged for 15 min at 3000 rpm. The absorbance of supernatant was measured and the IC50 values were calculated from the inhibition rate derived from Equation (1).

human LDL [4] = assay: Conjugated diene formation on Cu2+ induced LDL oxidation; assay type: biochemical; settings: at 10 μM of compound; 234 nm, followed for 180 min
Description: The formation of conjugated dienes from oxLDL was assessed by the method. The conjugated diene formation occurred in the clear bottom 96-well plate. The mixture of each well containing 230 μL of 550 μg/mL LDL in the buffer (10 mM PBS, pH 7.4) and 10 μL of 250 μM CuSO4 (final concentration: 10 μM) in the presence or absence of isoflavones or probucol as a positive control (final concentration: 10 μM) were incubated at 37 °C for 4 h. Then, the reaction was screened at 234 nm for 180 min every 5 min, continuously, incubating in the SpectraMax M3 multi-mode microplate reader. In the observed absorbance spectra, the lag time of tested samples was obtained as the endpoint indicated in the lag phase.

human LDL [5] = assay: as above; assay type: biochemical
[6] = target: T1, Bovine milk xanthine oxidase (XO, EC 1.17.3.2); assay: Xanthine oxidase activity (uric acid formation at 295 nm); assay type: biochemical; settings: initial velocity versus enzyme amount, 0~12.5 μM of compound
human LDL [7] = assay: Relative electrophoretic mobility (REM) of Cu2+ oxidized LDL; assay type: biochemical; settings: 10 μM compound, 10 μM CuSO4, 16 h
Description: The relative electrophoretic mobility (REM) of native LDL and oxidized LDL induced by Cu^2+ was performed according to the procedures of references. Before the electrophoresis, the samples containing 10 μM of CuSO4 and 10 μM of nine isoflavones or probucol were treated into LDL (500 μg/mL), then incubated for 16 h at 37 °C in dark condition. The native LDL and pretreated LDL samples loaded onto 0.5% agarose gel in TAE buffer (40 mM Tris-acetate with 1 mM EDTA, pH 8.0) and electrophoresed for 50 min at 100 V. After the electrophoresis, the gel was fixed in 40% ethanol with 10% acetic acid for 30 min, stained with 0.15% coomassie brilliant blue R250, and LDL bands visualized by using the destaining solution (methanol:acetic acid:water, 3:2:15, v/v).

[8] = Dixon plots, read-out: Ki (inhibition constant)
[9] = binding of inhibitor to free enzyme, secondary plot of slope, read-out: KI

| Compound | IC50 [1] | Ki [2, 8] | Inhibition Mode [2] | KIS [2] | Ki [2, 9] | Stern–Volmer constant KSV (xanthine oxidase) | Kd (xanthine oxidase) | number of binding sites n (xanthine oxidase) | IC50 (human LDL [3]) | Inhibition Rate (human LDL [3]) | Lag Time of conjugated diene formation (human LDL [4]) | fold more active than genistein in TBARS assay (human LDL [3]; ratio of TBARS IC50 values versus genistein (IC50 = 30.4 μM)) | Lag Time of conjugated diene formation (human LDL [5]; 0.3 μM of compound) | Lag Time of conjugated diene formation (human LDL [5]; 0.6 μM of compound) | Lag Time of conjugated diene formation (human LDL [5]; 1.25 μM of compound) | Reversibility of XO inhibition [6] | Effect on mobility of oxidized LDL (REM) (human LDL [7]) |
| --- | --- | --- | --- | --- | --- | --- | --- | --- | --- | --- | --- | --- | --- | --- | --- | --- | --- |
| C=CC(C)(C)C1=Cc2c(c(CC=C(C)C)c3occ(-c4ccc(O)c(O)c4)c(=O)c3c2O)OC1(C)C [Compound 5, flemiphilippinin A] | 14.8 µM | 12.8 µM | Mixed type I | 26.3 µM | 12.5 µM | 55310 L/mol | 1.38 µM | 1.0018 | 2.7 µM and 2.8 µM | 94.1% | > 180 min |  |  |  |  |  |  |
| CC(C)=CCc1cc(-c2coc3cc(O)cc(O)c3c2=O)c(CC=C(C)C)c(O)c1O [Compound 4, 5,7,3′,4′-tetrahydroxy-2′,5′-di(3-methylbut-2-enyl)isoflavone] | 10.9 µM | 11.5 µM | Mixed type I | 23.0 µM | 10.7 µM | 94970 L/mol | 1.12 µM | 1.4031 | 0.7 µM | 100% | > 180 min | 40 fold | 120 min | 160 min | 180 min |  |  |
| O=c1c(-c2ccc(O)cc2)coc2cc(O)cc(O)c12 [Compound 1, genistein] | 25 ± 2.3 µM | 11.5 µM | competitive inhibitor |  |  | 18450 L/mol | 1.99 µM | 0.7268 | 30.4 ± 1.5 µM | 20.3% | 80 min |  |  |  |  |  |  |
| CC(C)(Sc1cc(C(C)(C)C)c(O)c(C(C)(C)C)c1)Sc1cc(C(C)(C)C)c(O)c(C(C)(C)C)c1 [Probucol, probucol, reference compound] |  |  |  |  |  |  |  |  | 35.1 µM | 16.4% | 83 min |  |  |  |  |  |  |
| CC(C)=CCc1c(O)c(CC=C(C)C)c2occ(-c3ccc(O)c(O)c3)c(=O)c2c1O [Compound 3, 6,8-diprenylorobol] | 7.8 µM | 5.5 µM | Mixed type I | 15.5 µM | 5.7 µM | 125300 L/mol | 1.11 µM | 1.4392 | 1.9 µM | 98.6% | > 180 min |  |  |  |  | reversible |  |
| CC(C)=CCc1c2c(c3occ(-c4ccc(O)cc4)c(=O)c3c1O)C=CC(C)(C)O2 [Compound 8, osajin] | 34.7 µM | 33.9 µM | Mixed type I | 52.4 µM | 35.1 µM | 9870 L/mol | 2.14 µM | 0.6889 | 24.6 µM | 25.4% | 108 min |  |  |  |  |  |  |
| CC(C)=CCc1c2c(c(O)c3c(=O)c(-c4ccc(O)c(O)c4)coc13)C=CC(C)(C)O2 [Compound 2, auriculasin] | 12.4 µM | 11.1 µM | Mixed type I | 28.1 µM | 10.8 µM | 77550 L/mol | 1.33 µM | 1.0359 | 2.4 µM | 95.9% | > 180 min |  |  |  |  |  |  |
| CC(C)=CCc1c(O)c(CC=C(C)C)c2occ(-c3ccc(O)cc3)c(=O)c2c1O [Compound 7, 8-γ,γ-dimethylallylwighteone] | 16.9 µM | 11.3 µM | Mixed type I | 12.9 µM | 7.2 µM | 47970 L/mol | 1.5 µM | 0.8836 | 15.2 µM | 38.7% | 124 min |  |  |  |  |  | clearly reduced |
| COc1cc(-c2coc3c(CC=C(C)C)c(O)c(CC=C(C)C)c(O)c3c2=O)ccc1O [Compound 9, flemingsin] | 36.4 µM | 35.1 µM | Mixed type I | 49.0 µM | 35.2 µM | 9300 L/mol | 4.11 µM | 0.6736 | 14.6 µM | 40.3% | 128 min |  |  |  |  |  | clearly reduced |
| CC(C)=CCc1c(-c2coc3cc(O)cc(O)c3c2=O)cc2c(c1O)OC(C)(C)C=C2 [Compound 6, 5,7,3′-trihydroxy-2′-(3-methylbut-2-enyl)-4′,5′-(3,3-dimethylpyrano)isoflavone] | 20.4 µM | 19.3 µM | Mixed type I | 40.0 µM | 18.8 µM | 36450 L/mol | 1.6 µM | 0.8154 | 10.9 µM | 48.8% |  |  |  |  |  |  | clearly reduced |
